Results: ChEMBL document CHEMBL5505986, “Design, synthesis and biological evaluation of thiazolyl-halogenated pyrroles or pyrazoles as novel antibacterial and antibiofilm agents” (Eur J Med Chem, 2024)
≈ marks a conversion by molar mass, not a printed value. Calls of active or inactive are those of the source. No cut-off for these calls is given here.

Experiments:
Staphylococcus aureus [1] = experiment: Antibacterial activity against vancomycin-intermediate resistant Staphylococcus aureus ATCC 700699/Mu50 assessed as reduction in bacterial growth incubated for 24 hrs by broth microdilution method; format: functional
Streptococcus pyogenes [2] = experiment: Antibacterial activity against Streptococcus pyogenes ATCC 12204 assessed as reduction in bacterial growth incubated for 24 hrs by broth microdilution method; format: functional
Enterococcus faecium [3] = experiment: Antibacterial activity against clinical isolate Enterococcus faecium assessed as reduction in bacterial growth incubated for 24 hrs by broth microdilution method; format: functional
NCI-H1975 = experiment: Cytotoxicity against human NCI-H1975 cells measured after 72 hrs by SRB assay; format: functional, cell-based; settings: NCI-H1975, 72 h
NCI-H1299 = experiment: Cytotoxicity against human NCI-H1299 cells measured after 72 hrs by SRB assay; format: functional, cell-based; settings: NCI-H1299, 72 h
[4] = Toxicity in Galleria mellonella larvae assessed as reduction in animal survival […]; format: organism-based; settings: in vivo, 80 h
Enterococcus faecium [5] = experiment: Antibacterial activity against Enterococcus faecium Efm-HS0649 assessed as reduction in bacterial growth incubated for 24 hrs by broth microdilution method; format: functional
Enterococcus faecium [6] = experiment: Antibiofilm activity against Enterococcus faecium clinical isolate at sub-MIC doses measured after 24 hrs by crystal violet staining based analysis; format: functional
Enterococcus faecium [7] = experiment: Antibacterial activity against Enterococcus faecium Efm-HS06188 assessed as reduction in bacterial growth incubated for 24 hrs by broth microdilution method; format: functional
Staphylococcus aureus [8] = experiment: Antibiofilm activity against vancomycin-intermediate resistant Staphylococcus aureus ATCC 700699/Mu50 at sub-MIC doses measured after 24 hrs by crystal violet staining based analysis; format: functional
Pseudomonas aeruginosa [9] = experiment: Antibiofilm activity against Pseudomonas aeruginosa ATCC 47085 at sub-MIC doses measured after 24 hrs by crystal violet staining based analysis; format: functional
Enterococcus faecium [10] = experiment: Antibacterial activity against glycopeptide-resistant Enterococcus faecium vanB type assessed as reduction in bacterial growth incubated for 24 hrs by broth microdilution method; format: functional
Pseudomonas aeruginosa [11] = experiment: Antibiofilm activity against Pseudomonas aeruginosa ATCC 47085 at 8 to 16 ug/ml measured after 24 hrs by crystal violet staining based analysis; format: functional, organism-based; settings: dose 8-16 µg/ml
Klebsiella pneumoniae = experiment: Antibacterial activity against Klebsiella pneumoniae ATCC 13883 assessed as reduction in bacterial growth incubated for 24 hrs by broth microdilution method; format: functional
[12] = Metabolic stability in dog liver microsomes assessed as metabolic bioavailability at 0.1 uM preincubated for 10 mins followed by NADPH addition and measured upto 60 mins by LC-MS/MS analysis; format: ADME, Canis lupus familiaris, Microsome; settings: time < 70 min
Streptococcus pyogenes [13] = experiment: Antibacterial activity against Streptococcus pyogenes infected in Galleria mellonella larvae infection model assessed as increase in number of surviving larvae at 1 mg/kg pre-infected with bacteria for 1 hr followed by compound addition measured every 12 hrs for 3 days; format: functional, organism-based; settings: time 3.0 day
Streptococcus pyogenes [14] = experiment: Antibacterial activity against Streptococcus pyogenes infected in Galleria mellonella larvae infection model assessed as prolongation of median survival time at 1 mg/kg pre-infected with bacteria for 1 hr followed by compound addition measured every 12 hrs for 3 days (reference value: 24 hrs); format: functional; settings: time 3 day
[15] = Metabolic stability in mouse liver microsomes assessed as metabolic bioavailability at 0.1 uM preincubated for 10 mins followed by NADPH addition and measured upto 60 mins by LC-MS/MS analysis; format: ADME, Microsome; settings: time < 70 min
Acinetobacter baumannii = experiment: Antibacterial activity against Acinetobacter baumannii ATCC 19606 assessed as reduction in bacterial growth incubated for 24 hrs by broth microdilution method; format: functional
[16] = Metabolic stability in monkey liver microsomes assessed as metabolic bioavailability at 0.1 uM preincubated for 10 mins followed by NADPH addition and measured upto 60 mins by LC-MS/MS analysis; format: ADME, Macaca mulatta, Microsome; settings: rhesus monkey, time < 70 min
[17] = Toxicity in Galleria mellonella larvae assessed as reduction in animal survival at 20 mg/kg; format: organism-based; settings: in vivo, 80 h
Staphylococcus aureus [18] = experiment: Antibacterial activity against community associated methicillin-resistant Staphylococcus aureus USA300 assessed as reduction in bacterial growth incubated for 24 hrs by broth microdilution method; format: functional
Staphylococcus aureus [19] = experiment: Antibiofilm activity against vancomycin-intermediate resistant Staphylococcus aureus ATCC 700699/Mu50 at 1/8 time MIC measured after 24 hrs by crystal violet staining based analysis; format: functional, organism-based
[20] = Metabolic stability in rat liver microsomes assessed as metabolic bioavailability at 0.1 uM preincubated for 10 mins followed by NADPH addition and measured upto 60 mins by LC-MS/MS analysis; format: ADME, Microsome; settings: time < 70 min
Staphylococcus aureus [21] = experiment: Antibacterial activity against community associated methicillin-resistant Staphylococcus aureus USA400 assessed as reduction in bacterial growth incubated for 24 hrs by broth microdilution method; format: functional
[22] = Metabolic stability in human liver microsomes assessed as metabolic bioavailability at 0.1 uM preincubated for 10 mins followed by NADPH addition and measured upto 60 mins by LC-MS/MS analysis; format: ADME, Microsome; settings: time < 70 min
Pseudomonas aeruginosa [23] = experiment: Antibacterial activity against Pseudomonas aeruginosa ATCC 47085 assessed as reduction in bacterial growth incubated for 24 hrs by broth microdilution method; format: functional

## Cc1cc(Cl)c(O)c(-c2csc(-c3cc(Cl)c(Cl)[nH]3)n2)c1
Staphylococcus aureus [1]
  MIC: > 256 µg/mL
Streptococcus pyogenes [2]
  MIC: > 256 µg/mL
Enterococcus faecium [3]
  MIC: > 256 µg/mL

## O=C(c1cc(Cl)c(Cl)[nH]1)c1cc(Cl)cc(Cl)c1O
Staphylococcus aureus [1]
  MIC: ≤ 0.125 µg/mL
Streptococcus pyogenes [2]
  MIC: ≤ 0.125 µg/mL
NCI-H1975
  IC50: 0.59 µg/mL (≈ 1.82 µM)
NCI-H1299
  IC50: 0.82 µg/mL (≈ 2.52 µM)
Enterococcus faecium [3]
  MIC: 0.5 µg/mL (≈ 1.54 µM)
[4]
  Activity: Toxic

## FC(F)(F)c1cc(Br)cc(-c2csc(-c3[nH]c(Br)c(Br)c3Br)n2)c1
Staphylococcus aureus [1]
  MIC: 16 µg/mL (≈ 26.2 µM)
Streptococcus pyogenes [2]
  MIC: 16 µg/mL (≈ 26.2 µM)
Enterococcus faecium [3]
  MIC: 32 µg/mL (≈ 52.5 µM)

## Oc1c(Br)cc(Br)cc1-c1csc(-c2cc(Br)c(Br)[nH]2)n1
Staphylococcus aureus [1]
  MIC: > 256 µg/mL
Streptococcus pyogenes [2]
  MIC: 2 µg/mL (≈ 3.58 µM)
Enterococcus faecium [3]
  MIC: > 256 µg/mL

## Oc1c(Cl)cc(Cl)cc1-c1csc(-c2cc(Cl)c(Cl)[nH]2)n1
Staphylococcus aureus [1]
  MIC: > 256 µg/mL
Streptococcus pyogenes [2]
  MIC: > 256 µg/mL
Enterococcus faecium [3]
  MIC: > 256 µg/mL

## Oc1ccccc1-c1csc(-c2cc(Cl)c(Cl)[nH]2)n1
Staphylococcus aureus [1]
  MIC: > 256 µg/mL
Streptococcus pyogenes [2]
  MIC: > 256 µg/mL
Enterococcus faecium [3]
  MIC: > 256 µg/mL

## Oc1ccc(C(F)(F)F)cc1-c1csc(-c2cc(Cl)c(Cl)[nH]2)n1
Staphylococcus aureus [1]
  MIC: 4 µg/mL (≈ 10.5 µM)
Streptococcus pyogenes [2]
  MIC: 4 µg/mL (≈ 10.5 µM)
Enterococcus faecium [3]
  MIC: > 256 µg/mL

## CN[C@H](CC(C)C)C(=O)N[C@H]1C(=O)N[C@@H](CC(N)=O)C(=O)N[C@H]2C(=O)N[C@H]3C(=O)N[C@H](C(=O)N[C@H](C(=O)O)c4cc(O)cc(O)c4-c4cc3ccc4O)[C@H](O)c3ccc(c(Cl)c3)Oc3cc2cc(c3O[C@@H]2O[C@H](CO)[C@@H](O)[C@H](O)[C@H]2O[C@H]2C[C@](C)(N)[C@H](O)[C@H](C)O2)Oc2ccc(cc2Cl)[C@H]1O [VANCOMYCIN]
Staphylococcus aureus [1]
  MIC: 8 µg/mL (≈ 5.52 µM)
Streptococcus pyogenes [2]
  MIC: 0.25 µg/mL (≈ 0.173 µM)
Enterococcus faecium [5]
  MIC: > 256 µg/mL
Enterococcus faecium [3]
  MIC: 16 µg/mL (≈ 11 µM)
Enterococcus faecium [6]
  Activity: inactive
Enterococcus faecium [7]
  MIC: > 256 µg/mL
Staphylococcus aureus [8]
  Activity: inactive
Pseudomonas aeruginosa [9]
  Activity: inactive

## COc1c(Cl)cc(Cl)cc1-c1csc(-c2[nH]c(Br)c(Br)c2Br)n1
Staphylococcus aureus [1]
  MIC: > 256 µg/mL
Streptococcus pyogenes [2]
  MIC: > 256 µg/mL
Enterococcus faecium [3]
  MIC: > 256 µg/mL

## Oc1c(F)cc(F)cc1-c1csc(-c2[nH]c(Br)c(Br)c2Br)n1
Staphylococcus aureus [1]
  MIC: > 256 µg/mL
Streptococcus pyogenes [2]
  MIC: > 256 µg/mL
Enterococcus faecium [3]
  MIC: > 256 µg/mL

## Oc1c(Br)cc(C(F)(F)F)cc1-c1csc(-c2[nH]c(Br)c(Br)c2Br)n1
Staphylococcus aureus [1]
  MIC: 2 µg/mL (≈ 3.2 µM)
Enterococcus faecium [10]
  MIC: 0.5 µg/mL (≈ 0.799 µM)
Pseudomonas aeruginosa [11]
  Activity: Active
Klebsiella pneumoniae
  MIC: > 256 µg/mL
[12]
  Fh at 1 h, 0.1 µM: 18.4%
Streptococcus pyogenes [2]
  MIC: ≤ 0.125 µg/mL
Streptococcus pyogenes [13]
  Activity: Active
Streptococcus pyogenes [14]
  MST: 36 h
[15]
  Fh at 1 h, 0.1 µM: 43.3%
NCI-H1975
  IC50: 4.4 µg/mL (≈ 7.03 µM)
Enterococcus faecium [5]
  MIC: ≤ 0.125 µg/mL
NCI-H1299
  IC50: 8.25 µg/mL (≈ 13.2 µM)
Acinetobacter baumannii
  MIC: > 256 µg/mL
Enterococcus faecium [3]
  MIC: ≤ 0.125 µg/mL
[16]
  Fh at 1 h, 0.1 µM: 36.9%
[17]
  Activity: Non-Toxic
Staphylococcus aureus [18]
  MIC: 16 µg/mL (≈ 25.6 µM)
Staphylococcus aureus [19]
  Activity: Active
Enterococcus faecium [6]
  Activity: >60%
[20]
  Fh at 1 h, 0.1 µM: 65.7%
Staphylococcus aureus [21]
  MIC: 16 µg/mL (≈ 25.6 µM)
Enterococcus faecium [7]
  MIC: ≤ 0.125 µg/mL
[22]
  Fh at 1 h, 0.1 µM: 2.26%
Staphylococcus aureus [8]
  Activity: >60%
Pseudomonas aeruginosa [23]
  MIC: > 256 µg/mL
Pseudomonas aeruginosa [9]
  Activity: >60%

## Oc1c(F)cc(F)cc1-c1csc(-c2cc(Cl)c(Cl)[nH]2)n1
Staphylococcus aureus [1]
  MIC: > 256 µg/mL
Streptococcus pyogenes [2]
  MIC: > 256 µg/mL
Enterococcus faecium [3]
  MIC: > 256 µg/mL
